# Assay results: patent US12612360B2 (Sanofi, priority 2020, dated 2026)
# Biological target: T1, ERα (Homo sapiens, UniProt P03372)
# T1 construct: host or cells: MCF7
# T1 sequence (P03372 1-595): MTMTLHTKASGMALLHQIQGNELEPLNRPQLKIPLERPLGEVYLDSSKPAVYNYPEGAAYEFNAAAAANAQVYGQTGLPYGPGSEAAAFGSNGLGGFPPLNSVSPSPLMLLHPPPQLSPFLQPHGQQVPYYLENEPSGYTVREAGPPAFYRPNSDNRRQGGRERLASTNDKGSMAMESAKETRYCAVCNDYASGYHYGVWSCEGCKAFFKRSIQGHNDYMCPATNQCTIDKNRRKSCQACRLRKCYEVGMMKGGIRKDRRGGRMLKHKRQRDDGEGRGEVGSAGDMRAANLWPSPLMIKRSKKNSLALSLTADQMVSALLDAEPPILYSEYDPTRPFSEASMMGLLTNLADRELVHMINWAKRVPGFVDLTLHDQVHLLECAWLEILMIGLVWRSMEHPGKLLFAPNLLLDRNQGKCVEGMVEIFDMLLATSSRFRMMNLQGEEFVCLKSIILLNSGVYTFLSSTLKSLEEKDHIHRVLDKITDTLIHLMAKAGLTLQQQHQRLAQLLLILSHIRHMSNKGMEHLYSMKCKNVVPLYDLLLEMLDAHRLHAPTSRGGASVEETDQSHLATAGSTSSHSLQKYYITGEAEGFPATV
# Experiment: Estrogen receptor degradation activity: breast cancer cell ERα in cell western assay (MCF7 cells)
# Format: cell-based
# Details: for % Degradation At 0.3 μM: 4 hours, relative to fulvestrant 0.1 μM positive control; for DC50: 4 hours post compound addition, concentration which degrades 50% of the estrogen receptor, read-out: Degradation IC50
# Procedure: Test: Estrogen Receptor Degradation Activity Said test involves measuring the in vitro degradation activity of the compounds of the Table 1a. The measurements of the degradation activities were made using a breast cancer cell ERα in cell western assay as described hereunder. MCF7 cells (ATCC) were seeded in 384 wells microplate (collagen coated) at a concentration of 10000 cells/30 μL per well in red phenol free MEM alpha medium (invitrogen) containing 5% charcoal dextran striped FBS. The following day, 9 points serial 1:5 dilution of each compound was added to the cells in 2.5 μL at final concentrations ranging from […] (in table 2), or 0.1 μM for fulvestrant (using as positive control). At 4 hours post compound addition the cells were fixed by adding 25 μL of formalin (final concentration 5% formalin containing 0.1% triton) for 10 minutes at room temperature and then washed twice with PBS. Then, 50 μL of LI-COR blocking buffer containing 0.1% Triton was added to plate for 30 minutes at room temperature. LI-COR blocking buffer was removed and cells were incubated overnight at cold room with 50 μL anti-ER rabbit monoclonal antibody (Thermo scientific MA1-39540) diluted at 1:1000 in LI-COR blocking buffer containing 0.1% tween-20. Wells which were treated with blocking buffer but no antibody were used as background control. Wells were washed twice with PBS (0.1% tween-20) and incubated at 37° C. for 60 minutes in LI-COR (0.1% tween-20) containing goat anti-rabbit antibody Alexa 488 (1:1000) and Syto-64 a DNA dye (2 μM final concentration). Cells were then washed 3 times in PBS and scanned in ACUMEN explorer (TTP-Labtech). Integrated intensities in the green fluorescence and red fluorescence were measured to determine the levels of ERα and DNA respectively. The degradation activity with respect to estrogen receptors in this test is given by the concentration which degrades 50% of the estrogen receptor (or IC50) in nM. […] DMSO−fulvestrant)).
% Degradation At 0.3 μM,DC50,Compound
93%,0.3 nM,"O=C(O)c1ccc2c(c1)CCCC(c1c(F)cc(C(F)(F)F)cc1F)=C2c1ccc(C=C2CN(CCCF)C2)cc1 [Example 21, 8-(2,6-difluoro-4-(trifluoromethyl)phenyl)-9-(4-((1-(3-fluoropropyl)azetidin-3-ylidene)methyl)phenyl)-6,7-dihydro-5H-benzo[7]annulene-3-carboxylic acid]"
93%,0.5 nM,"Cc1c(C2=C(c3ccc(C=C4CN(CCC(F)F)C4)cc3)c3ccc(C(=O)O)cc3CCC2)ccc(F)c1F [Example 22, 8-(3,4-difluoro-2-methylphenyl)-9-(4-((1-(3,3-difluoropropyl)azetidin-3-ylidene)methyl)phenyl)-6,7-dihydro-5H-benzo[7]annulene-3-carboxylic acid]"
96%,0.4 nM,"O=C(O)c1ccc2c(c1)CCCC(c1cccc(Cl)c1C(F)(F)F)=C2c1ccc(C=C2CN(CCCF)C2)cc1 [Example 23, 8-(3-chloro-2-(trifluoromethyl)phenyl)-9-(4-((1-(3-fluoropropyl)azetidin-3-ylidene)methyl)phenyl)-6,7-dihydro-5H-benzo[7]annulene-3-carboxylic acid]"
95%,0.2 nM,"O=C(O)c1ccc2c(c1)CCCC(c1cccc(F)c1C(F)(F)F)=C2c1ccc(C=C2CN(CCCF)C2)cc1 [Example 24, 8-(3-fluoro-2-(trifluoromethyl)phenyl)-9-(4-((1-(3-fluoropropyl)azetidin-3-ylidene)methyl)phenyl)-6,7-dihydro-5H-benzo[7]annulene-3-carboxylic acid]"
92%,0.5 nM,"O=C(O)c1ccc2c(c1)CCCC(c1ccc(F)cc1C(F)(F)F)=C2c1ccc(C=C2CN(CCC(F)F)C2)cc1 [Example 25, 9-(4-((1-(3,3-difluoropropyl)azetidin-3-ylidene)methyl)phenyl)-8-(4-fluoro-2-(trifluoromethyl)phenyl)-6,7-dihydro-5H-benzo[7]annulene-3-carboxylic acid]"
91%,0.4 nM,"O=C(O)c1ccc2c(c1)CCCC(c1cccc(F)c1C(F)(F)F)=C2c1ccc(C=C2CN(CCC(F)F)C2)cc1 [Example 26, 9-(4-((1-(3,3-difluoropropyl)azetidin-3-ylidene)methyl)phenyl)-8-(3-fluoro-2-(trifluoromethyl)phenyl)-6,7-dihydro-5H-benzo[7]annulene-3-carboxylic acid]"
92%,0.9 nM,"Cc1cc(C2=C(c3ccc(F)cc3F)CCCc3cc(C(=O)O)ccc32)cc(F)c1C=C1CN(CCCF)C1 [Example 27, 8-(2,4-difluorophenyl)-9-(3-fluoro-4-((1-(3-fluoropropyl)azetidin-3-ylidene)methyl)-5-methylphenyl)-6,7-dihydro-5H-benzo[7]annulene-3-carboxylic acid]"
90%,1 nM,"Cc1cc(F)ccc1C1=C(c2cc(C)c(C=C3CN(CCCF)C3)c(F)c2)c2ccc(C(=O)O)cc2CCC1 [Example 28, 8-(4-fluoro-2-methylphenyl)-9-(3-fluoro-4-((1-(3-fluoropropyl)azetidin-3-ylidene)methyl)-5-methylphenyl)-6,7-dihydro-5H-benzo[7]annulene-3-carboxylic acid]"
96%,0.3 nM,"Cc1c(C2=C(c3ccc(C=C4CN(CCCF)C4)cc3)c3ccc(C(=O)O)cc3CCC2)ccc(F)c1F [Example 29, 8-(3,4-difluoro-2-methylphenyl)-9-(4-((1-(3-fluoropropyl)azetidin-3-ylidene)methyl)phenyl)-6,7-dihydro-5H-benzo[7]annulene-3-carboxylic acid]"
91%,1.8 nM,"Cc1cc(F)ccc1C1=C(c2ccc(C=C3CN(CCCF)C3)c(F)c2C)c2ccc(C(=O)O)cc2CCC1 [Example 30, 8-(4-fluoro-2-methylphenyl)-9-(3-fluoro-4-((1-(3-fluoropropyl)azetidin-3-ylidene)methyl)-2-methylphenyl)-6,7-dihydro-5H-benzo[7]annulene-3-carboxylic acid]"
92%,0.8 nM,"Cc1cc(C=C2CN(CCCF)C2)cc(F)c1C1=C(c2ccc(F)cc2F)CCCc2cc(C(=O)O)ccc21 [Example 31, 8-(2,4-difluorophenyl)-9-(2-fluoro-4-((1-(3-fluoropropyl)azetidin-3-ylidene)methyl)-6-methylphenyl)-6,7-dihydro-5H-benzo[7]annulene-3-carboxylic acid]"
92%,0.3 nM,"O=C(O)c1ccc2c(c1)CCCC(c1c(F)cc(F)cc1F)=C2c1ccc(C=C2CN(CCCF)C2)cc1 [Example 33, 9-(4-((1-(3-fluoropropyl)azetidin-3-ylidene)methyl)phenyl)-8-(2,4,6-trifluorophenyl)-6,7-dihydro-5H-benzo[7]annulene-3-carboxylic acid]"
90%,0.3 nM,"O=C(O)c1ccc2c(c1)CCCC(c1ccc(C3CC3)cc1F)=C2c1ccc(C=C2CN(CCCF)C2)cc1 [Example 34, 8-(4-cyclopropyl-2-fluorophenyl)-9-(4-((1-(3-fluoropropyl)azetidin-3-ylidene)methyl)phenyl)-6,7-dihydro-5H-benzo[7]annulene-3-carboxylic acid]"
93%,0.4 nM,"O=C(O)c1ccc2c(c1)CCCC(c1ncc(Cl)cc1C(F)(F)F)=C2c1ccc(C=C2CN(CCCF)C2)cc1 [Example 35, 8-(5-chloro-3-(trifluoromethyl)pyridin-2-yl)-9-(4-((1-(3-fluoropropyl)azetidin-3-ylidene)methyl)phenyl)-6,7-dihydro-5H-benzo[7]annulene-3-carboxylic acid]"
89%,0.4 nM,"Cc1cc(F)ccc1C1=C(c2cc(F)c(C=C3CN(CCCF)C3)c(F)c2)c2ccc(C(=O)O)cc2CCC1 [Example 36, 9-(3,5-difluoro-4-((1-(3-fluoropropyl)azetidin-3-ylidene)methyl)phenyl)-8-(4-fluoro-2-methylphenyl)-6,7-dihydro-5H-benzo[7]annulene-3-carboxylic acid]"
87%,0.4 nM,"O=C(O)c1ccc2c(c1)CCCC(c1ccc(Cl)cc1C(F)(F)F)=C2c1ccc(C=C2CN(CCCF)C2)cc1 [Example 37, 8-(4-chloro-2-(trifluoromethyl)phenyl)-9-(4-((1-(3-fluoropropyl)azetidin-3-ylidene)methyl)phenyl)-6,7-dihydro-5H-benzo[7]annulene-3-carboxylic acid]"
91%,0.2 nM,"Cc1ccc(F)cc1C1=C(c2ccc(C=C3CN(CCCF)C3)cc2)c2ccc(C(=O)O)cc2CCC1 [Example 38, 8-(5-fluoro-2-methylphenyl)-9-(4-((1-(3-fluoropropyl)azetidin-3-ylidene)methyl)phenyl)-6,7-dihydro-5H-benzo[7]annulene-3-carboxylic acid]"
87%,0.2 nM,"Cc1cc(C2CC2)ccc1C1=C(c2ccc(C=C3CN(CCCF)C3)cc2)c2ccc(C(=O)O)cc2CCC1 [Example 39, 8-(4-cyclopropyl-2-methylphenyl)-9-(4-((1-(3-fluoropropyl)azetidin-3-ylidene)methyl)phenyl)-6,7-dihydro-5H-benzo[7]annulene-3-carboxylic acid]"
87%,0.3 nM,"O=C(O)c1ccc2c(c1)CCCC(c1ccc(F)cc1C1CC1)=C2c1ccc(C=C2CN(CCCF)C2)cc1 [Example 40, 8-(2-cyclopropyl-4-fluorophenyl)-9-(4-((1-(3-fluoropropyl)azetidin-3-ylidene)methyl)phenyl)-6,7-dihydro-5H-benzo[7]annulene-3-carboxylic acid]"
